# From article PMC7680425 (Cell chemical biology, 2020)
# Assays:
# [1] = system: PfROM4; experiment: Merozoite adhesin shedding assay: EBA175 shedding by PfROM4; format: cell-based, P. falciparum; details: 10μM RiKa (p=0.0014) or 25mM EGTA, 90 min at 37°C
# [2] = system: PfROM4; format: cell-based, P. falciparum; details: transfected HEK293T cells
molecule,measurement,setting,value
O=C(O)CN(CCOCCOCCN(CC(=O)O)CC(=O)O)CC(=O)O [EGTA],shedding of EBA175 by PfROM4 from free merozoites,[1],did not inhibit
Ac-KRFRSMQYSA-CHO (Ac-KRFRSMQYSA-aldehyde; SMILES CSCC[C@H](NC(=O)[C@H](CO)NC(=O)[C@H](CCCNC(=N)N)NC(=O)[C@H](Cc1ccccc1)NC(=O)[C@H](CCCNC(=N)N)NC(=O)[C@H](CCCCN)NC(C)=O)C(=O)N[C@@H](CCC(N)=O)C(=O)N[C@@H](Cc1ccc(O)cc1)C(=O)N[C@@H](CO)C(=O)N[C@@H](C)C=O),inhibition of EBA175 processing by PfROM4,[2],abrogated PfROM4 inhibition
